From ChEMBL document CHEMBL4038316, “Enantioselective Synthesis and in Vivo Evaluation of Regioisomeric Analogues of the Antimalarial Arterolane” (J Med Chem, 2017)
Converted amounts (≈) assume the structure as drawn.

Columns and labels:
[1] = system: Plasmodium berghei; experiment: Antiplasmodial activity against Plasmodium berghei infected in Swiss Webster mouse assessed as cure rate at 4 mg/kg/day administered for 4 days via oral gavage starting at 1 hr post infection measured after 30 days relative to control; assay type: functional
[2] = system: Plasmodium berghei; experiment: Antiplasmodial activity against Plasmodium berghei infected in Swiss Webster mouse assessed as cure rate at 6 mg/kg/day administered for 4 days via oral gavage starting at 1 hr post infection measured after 30 days relative to control; assay type: functional
[3] = system: Plasmodium falciparum; experiment: Antiplasmodial activity against chloroquine-resistant Plasmodium falciparum W2 infected in human RBC after 48 hrs by YOYO-1 staining-based flow cytometry method; assay type: functional; settings: W2, 48 h
[4] = system: Liver; experiment: (§1) Half life in mouse liver microsomes; assay type: ADME, microsome; settings: microsomes
[5] = system: Liver; settings: mouse, microsomes
Description: (§3) Intrinsic clearance in mouse liver microsomes assessed per mg of protein

[6] = system: Liver; experiment: Metabolic stability in mouse liver microsomes in absence of NADPH; assay type: ADME, microsome
[7] = system: Plasmodium falciparum; experiment: Antiplasmodial activity against Plasmodium falciparum Cam3.2_rev infected in human RBC assessed as time required to reduce early ring stage parasite viability by 50% by SYTO 61-staining-based flow cytometry; assay type: functional
[8] = system: Plasmodium falciparum; experiment: Antiplasmodial activity against Plasmodium falciparum Cam3.2 infected in human RBC assessed as time required to reduce early ring stage parasite viability by 50% by SYTO 61-staining-based flow cytometry; assay type: functional
[9] = system: Liver; experiment: (§2) Half life in mouse liver microsomes in absence of NADPH; assay type: ADME, microsome; settings: microsomes
[10] = as §1; assay type: ADME, microsome; settings: liver microsomes
[11] = in vitro; settings: mouse, liver microsomes
Description: as §3

[12] = system: Plasmodium berghei; experiment: Antiplasmodial activity against Plasmodium berghei infected in Swiss Webster mouse assessed as increase in cure rate administered for 4 days via oral gavage starting at 1 hr post infection measured after 30 days; assay type: functional; settings: for ED50: Plasmodium berghei, po, read-out: PD50
[13] = system: Plasmodium berghei; experiment: Antiplasmodial activity against Plasmodium berghei infected in Swiss Webster mouse assessed as cure rate at 13.6 mg/kg/day administered for 4 days via oral gavage starting at 1 hr post infection measured after 30 days relative to control; assay type: functional
[14] = system: Plasmodium berghei; experiment: Antiplasmodial activity against Plasmodium berghei infected in Swiss Webster mouse assessed as cure rate at 1 mg/kg/day administered for 4 days via oral gavage starting at 1 hr post infection measured after 30 days relative to control; assay type: functional
[15] = system: Plasmodium berghei; experiment: Antiplasmodial activity against Plasmodium berghei infected in Swiss Webster mouse assessed as cure rate at 10 mg/kg/day administered for 4 days via oral gavage starting at 1 hr post infection measured after 30 days relative to control; assay type: functional
[16] = system: Plasmodium berghei; experiment: Antiplasmodial activity against Plasmodium berghei infected in Swiss Webster mouse assessed as cure rate at 4 mg/kg/day administered for 1 day via oral gavage starting at 1 hr post infection measured after 30 days relative to control; assay type: functional
[17] = system: Plasmodium berghei; experiment: Antiplasmodial activity against Plasmodium berghei infected in Swiss Webster mouse assessed as cure rate at 40 mg/kg/day administered for 1 day via oral gavage starting at 1 hr post infection measured after 30 days relative to control; assay type: functional
[18] = as §2; assay type: ADME, microsome; settings: liver microsomes
[19] = system: Plasmodium berghei; experiment: Antiplasmodial activity against Plasmodium berghei infected in Swiss Webster mouse assessed as cure rate at 4 mg/kg/day administered for 2 days via oral gavage starting at 1 hr post infection measured after 30 days relative to control; assay type: functional
[20] = system: Plasmodium berghei; experiment: Antiplasmodial activity against Plasmodium berghei infected in Swiss Webster mouse assessed as cure rate at 0.5 mg/kg/day administered for 4 days via oral gavage starting at 1 hr post infection measured after 30 days relative to control; assay type: functional
[21] = system: Plasmodium berghei; experiment: Antiplasmodial activity against Plasmodium berghei infected in Swiss Webster mouse assessed as cure rate at 2 mg/kg/day administered for 4 days via oral gavage starting at 1 hr post infection measured after 30 days relative to control; assay type: functional
[22] = system: Plasmodium berghei; experiment: Antiplasmodial activity against Plasmodium berghei infected in Swiss Webster mouse assessed as cure rate at 80 mg/kg/day administered for 1 day via oral gavage starting at 1 hr post infection measured after 30 days relative to control; assay type: functional
[23] = system: Plasmodium berghei; experiment: Antiplasmodial activity against Plasmodium berghei infected in Swiss Webster mouse assessed as cure rate at 4 mg/kg/day administered for 3 days via oral gavage starting at 1 hr post infection measured after 30 days relative to control; assay type: functional
[24] = system: Plasmodium berghei; experiment: Antiplasmodial activity against Plasmodium berghei infected in Swiss Webster mouse assessed as cure rate at 40 mg/kg/day administered for 2 days via oral gavage starting at 1 hr post infection measured after 30 days relative to control; assay type: functional
[25] = buffer, pH 7.4
Description: (§4) Kinetic solubility of the compound in PBS at pH 7.4

[26] = system: Plasmodium berghei; experiment: Antiplasmodial activity against Plasmodium berghei infected in Swiss Webster mouse assessed as cure rate at 9.5 mg/kg/day administered for 4 days via oral gavage starting at 1 hr post infection measured after 30 days relative to control; assay type: functional
[27] = physchem; settings: PBS, pH 7.4
Description: as §4

## N[C@H]1CC[C@H](NC(=O)C[C@@H]2CCC[C@]3(C2)OOC2(O3)C3CC4CC(C3)CC2C4)CC1 (stereo not given in full)
[1]
  Activity: 60%
[2]
  Activity: 100%
[3]
  EC50: 5.9 nM

## O=C(C[C@H]1CC[C@]2(CC1)OO[C@]1(O2)C2CC3CC(C2)CC1C3)N1CCCCC1
[1]
  Activity: 0%
[2]
  Activity: 0%
[3]
  EC50: 57 nM

## CC(C)(CN)CNC(=O)C[C@H]1CC[C@]2(CC1)OO[C@]1(O2)C2CC3CC(C2)CC1C3
[1]
  Activity: 40%
[4]
  t1/2: 2.68 h
[2]
  Activity: 100%
[5]
  CLH: 4.3 µL/min
[6]
  Stability: Stable
[3]
  EC50: 2.6 nM

## O=C(C[C@@H]1CCC[C@]2(C1)OOC1(O2)C2CC3CC(C2)CC1C3)N1CCCCC1 (stereo not given in full)
[3]
  EC50: 31.4 nM

## NC(=O)CNC(=O)C[C@H]1CC[C@]2(CC1)OO[C@]1(O2)C2CC3CC(C2)CC1C3
[1]
  Activity: 0%
[4]
  t1/2: 2.07 h
[2]
  Activity: 0%
[5]
  CLH: 5.6 µL/min
[6]
  Stability: Stable
[3]
  EC50: 9.2 nM

## C[C@H]1[C@@H](O)O[C@@H]2O[C@@]3(C)CC[C@H]4[C@H](C)CC[C@@H]1[C@@]24OO3 [ARTENIMOL]
[7]
  Time: 1 h
[8]
  Time: 3 h

## O=C(C[C@H]1CC[C@]2(CC1)OO[C@]1(O2)C2CC3CC(C2)CC1C3)N1CCNCC1
[1]
  Activity: 100%
[4]
  t1/2: 0.802 h
[9]
  t1/2: 1.48 h
[2]
  Activity: 100%
[5]
  CLH: 14.4 µL/min
[3]
  EC50: 1.9 nM

## Cc1ncc2n1-c1ccc(Cl)cc1C(c1ccccc1F)=NC2 [MIDAZOLAM]
[4]
  t1/2: 0.0275 h
[5]
  CLH: 420 µL/min

## NC1CCN(C(=O)C[C@@H]2CCC[C@]3(C2)OOC2(O3)C3CC4CC(C3)CC2C4)CC1 (stereo not given in full)
[10]
  half-life: 1.41 h
[11]
  microsomal CLint: 8.2 µL/min/mg
[6]
  Stability: Stable
[3]
  EC50: 3.9 nM
[12]
  PD100: 4 mg/kg/day

## CC(C)(N)CNC(=O)C[C@@H]1CCC[C@]2(C1)OOC1(O2)C2CC3CC(C2)CC1C3.Cc1ccc(S(=O)(=O)O)cc1 (stereo not given in full)
[13]
  Activity: 100%

## CN1CCN(C(=O)C[C@H]2CC[C@]3(CC2)OO[C@]2(O3)C3CC4CC(C3)CC2C4)CC1
[1]
  Activity: 0%
[2]
  Activity: 0%
[3]
  EC50: 4.9 nM

## CC(C)(N)CNC(=O)C[C@H]1CC[C@]2(CC1)OO[C@]1(O2)C2CC3CC(C2)CC1C3 [OZ277]
[1]
  Activity: 20 - 80%
[7]
  Time: 1 h
[4]
  t1/2: 2.13 h
[8]
  Time: 3 h
[14]
  Activity: 0%
[15]
  Activity: 100%
[2]
  Activity: 80 - 100%
[5]
  CLH: 5.4 µL/min
[6]
  Stability: Stable
[3]
  EC50: 2.5 nM
[12]
  PD100: 10 mg/kg/day
  ED50: 4 mg/kg/day

## CN1CCN(C(=O)C[C@@H]2CCC[C@]3(C2)OOC2(O3)C3CC4CC(C3)CC2C4)CC1 (stereo not given in full)
[1]
  Activity: 0%
[2]
  Activity: 0%
[3]
  EC50: 4.4 nM

## O=C(O)Cc1ccccc1Nc1c(Cl)cccc1Cl [DICLOFENAC]
[5]
  CLH: 12.5 µL/min

## NCCNC(=O)C[C@@H]1CCC[C@]2(C1)OOC1(O2)C2CC3CC(C2)CC1C3 (stereo not given in full)
[16]
  Activity: 0%
[17]
  Activity: 0%
[10]
  half-life: 1.41 h
[18]
  half-life: 2.27 h
[14]
  Activity: 0%
[19]
  Activity: 0%
[2]
  Activity: 100%
[20]
  Activity: 0%
[21]
  Activity: 0%
[11]
  microsomal CLint: 8.2 µL/min/mg
[22]
  Activity: 20%
[23]
  Activity: 20%
[24]
  Activity: 100%
[3]
  EC50: 5.4 nM

## C[C@]12CC[C@H]3[C@@H](CCC4=CC(=O)CC[C@@]43C)[C@@H]1CC[C@@H]2O [TESTOSTERONE]
[25]
  Kinetic_solubility: 315 µM

## NC(=O)CNC(=O)C[C@@H]1CCC[C@]2(C1)OOC1(O2)C2CC3CC(C2)CC1C3 (stereo not given in full)
[10]
  half-life: 0.622 h
[11]
  microsomal CLint: 18.6 µL/min/mg
[6]
  Stability: Stable
[3]
  EC50: 10.6 nM

## O=C(C[C@H]1CC[C@]2(CC1)OO[C@]1(O2)C2CC3CC(C2)CC1C3)N1CCOCC1
[1]
  Activity: 0%
[2]
  Activity: 0%
[3]
  EC50: 20.7 nM

## O=C(C[C@@H]1CCC[C@]2(C1)OOC1(O2)C2CC3CC(C2)CC1C3)N1CCOCC1 (stereo not given in full)
[1]
  Activity: 0%
[2]
  Activity: 0%
[3]
  EC50: 6.8 nM

## O=C(C[C@@H]1CCC[C@]2(C1)OOC1(O2)C2CC3CC(C2)CC1C3)N1CCNCC1 (stereo not given in full)
[1]
  Activity: 0%
[10]
  half-life: 0.425 h
[2]
  Activity: 20%
[11]
  microsomal CLint: 27.2 µL/min/mg
[6]
  Stability: Stable
[3]
  EC50: 2.9 nM

## NC1CCN(C(=O)C[C@H]2CC[C@]3(CC2)OO[C@]2(O3)C3CC4CC(C3)CC2C4)CC1
[1]
  Activity: 100%
[4]
  t1/2: 4.62 h
[2]
  Activity: 100%
[5]
  CLH: 2.5 µL/min
[6]
  Stability: Stable
[3]
  EC50: 1.3 nM

## c1cc([C@H]2CC[C@]3(CC2)OO[C@]2(O3)C3CC4CC(C3)CC2C4)ccc1OCCN1CCOCC1 [ARTEFENOMEL]
[7]
  Time: 2 h
[8]
  Time: 5 h

## CC(C)(N)CNC(=O)C[C@H]1CC[C@]2(CC1)OOC1(O2)C2CC3CC(C2)CC1C3.Cc1ccc(S(=O)(=O)O)cc1 (stereo not given in full)
[13]
  Activity: 100%

## CC(C)(CN)CNC(=O)C[C@@H]1CCC[C@]2(C1)OOC1(O2)C2CC3CC(C2)CC1C3 (stereo not given in full)
[1]
  Activity: 0%
[10]
  half-life: 1.07 h
[2]
  Activity: 0%
[11]
  microsomal CLint: 10.8 µL/min/mg
[6]
  Stability: Stable
[3]
  EC50: 4.1 nM

## NCCNC(=O)C[C@H]1CC[C@]2(CC1)OO[C@]1(O2)C2CC3CC(C2)CC1C3
[1]
  Activity: 0%
[4]
  t1/2: 1.07 h
[9]
  t1/2: 1.17 h
[2]
  Activity: 20%
[5]
  CLH: 10.8 µL/min
[3]
  EC50: 3.6 nM

## N[C@H]1CC[C@H](NC(=O)C[C@H]2CC[C@]3(CC2)OO[C@]2(O3)C3CC4CC(C3)CC2C4)CC1
[1]
  Activity: 80%
[2]
  Activity: 80%
[3]
  EC50: 4.5 nM

## CC(C)(N)CNC(=O)C[C@@H]1CCC[C@]2(C1)OOC1(O2)C2CC3CC(C2)CC1C3 (stereo not given in full)
[26]
  Activity: 100%
[10]
  half-life: 2.82 h
[14]
  Activity: 0%
[15]
  Activity: 100%
[2]
  Activity: 60%
[11]
  microsomal CLint: 4.1 µL/min/mg
[6]
  Stability: Stable
[3]
  EC50: 3 nM
[27]
  solubility kinetic: 429 µM (≈ 168 µg/mL)
[12]
  PD100: 10 mg/kg/day
  ED50: 6 mg/kg/day
